Test results from patent publication EP1076064A1, “NOVEL ASPARTAME DERIVATIVE CRYSTAL AND PROCESS FOR PRODUCING THE SAME” (Ajinomoto Co., Inc., priority 1998, dated 1999).

What was measured:
[1] = Measurement of the dissolution rate for the dried crystals (dissolution tester); format: physicochemical; conditions: 0.5 g crystals in 900 ml ion exchanged water kept at 20 °C, stirring 100 rpm
Description: The dissolution rates of the A-type crystals (Reference Example 4 (b)) and the D-type crystals (Example 1) were determined in the following method. The apparatus used was "DISSOLUTION TESTER" (NTR-6100) manufactured by Toyama Sangyo K. K. 0.5 g each of the A-type crystals and D-type crystals were introduced into 900 ml ion exchanged water kept at 20 °C at a stirring in the number of revolution of 100 rpm, and the time which elapsed until the crystals came to be completely dissolved was measured.

[2] = cited from earlier work

| Structure (SMILES) | time which elapsed until the crystals came to be completely dissolved [1] | efficacy of sweetness relative to Aspartame ([2]; in weight ratio, versus Aspartame) | efficacy of sweetness relative to sucrose (table sugar) ([2]; versus sucrose (table sugar)) |
| --- | --- | --- | --- |
| COC(=O)[C@H](Cc1ccccc1)NC(=O)[C@H](CC(=O)O)NCCC(C)(C)C [A-type crystals, N-[N-(3,3-dimethylbutyl)-L-α-aspartyl]-L-phenylalanine methyl ester, reference compound] | about 35 minutes | – | – |
| COC(=O)[C@H](Cc1ccccc1)NC(=O)[C@H](CC(=O)O)NCCC(C)(C)C [D-type crystals, N-[N-(3,3-dimethylbutyl)-L-α-aspartyl]-L-phenylalanine methyl ester] | about 5 minutes | – | – |
| COC(=O)[C@H](Cc1ccccc1)NC(=O)[C@H](CC(=O)O)NCCC(C)(C)C [N-(3,3-dimethylbutyl)-APM, N-[N-(3,3-dimethylbutyl)-L-α-aspartyl]-L-phenylalanine methyl ester] | – | at least 50 times | about 10,000 times |
